By IC50 is commonly meant the concentration that gives 50% inhibition.

For assay [1], the system named is melanoma LOX IMVI cell line. The experiment in a line: Annexin V-FITC/PI apoptosis and necrosis assay. Format: cell-based, human. As to conditions: LOX IMVI treated with IC50 concentration. The procedure:
Following the manufacturer’s instructions, the Annexin V-FITC Apoptosis Detection Kit (Bio Vision Research Products, USA) was used to analyze cell apoptosis. Briefly, 500 µL of 1X Binding buffer was used to resuspend 1-5 × 10^5 cells that had been harvested by centrifugation. Propidium iodide (PI, 50 mg/ml) and Annexin V-FITC, each administered in 5 µL, were also added. The cells were first incubated for 5 minutes at room temperature in the dark before being analyzed using the Annexin V-FITC binding flow cytometric technique (Ex = 488 nm; Em = 530 nm) with a FITC signal detector (typically FL1) and PI staining with a phycoerythrin emission signal detector (typically FL2). Before exposing adherent cells to Annexin V-FITC, we gently trypsinized and gave them a single wash in serum-containing medium (A.3–5). Cell synchronisation is done using Double-thymidine synchronization method and the used Media is double modifed eagle media (DMEM).
Cell cycle analysis and detection of apoptosis
Annexin V-FITC apoptosis assay
Cell apoptosis were analyzed by the Annexin V-FITC Apoptosis Detection Kit (Bio Vision Research Products, USA). Thereafter, 1-5 x 10^5 cells were collected by centrifugation and resuspend in 500 μl of 1X Binding Buffer. Added 5 μl of Annexin V-FITC and 5 μl of propidium iodide (PI 50mg/ml, optional.). The cells incubated at room temperature for 5 min in the dark; Analyzed by Annexin V-FITC binding flow cytometric method (Ex = 488 nm; Em = 530 nm) using FITC signal detector (usually FL1) and PI staining by the phycoerythrin emission signal detector (usually FL2). For adherent cells, we gently trypsinized and washed cells once with serum-containing media before incubation with Annexin V-FITC (A.3-5). […]

The subject of assay [2] is normal cell line WI 38. The experiment in a line: MTT cytotoxicity assay on normal cells. Format: cell-based. As to conditions: Homo sapiens; normal cell line WI 38, MTT assay, ± SEM; read-out: IC50 W138 normal cell line (µM ± SEM). The procedure:
After 24 h of culture incubation and supernatants discarded. […] Each test should include a blank containing complete medium without cells. […] Add reconstituted MTT in an amount equal to 10% of the culture medium volume. […] Spectrophotometrically absorbance was measured at a wavelength of 570 nm. […] Results from all experiments were recorded and the percentage of viable cells was calculated.
A general note: Tetrazolium assays rely on reduction of a dye to a coloured formazan, in cell work by metabolically active cells.

`O=C(O)c1cn(C2CC2)c2cc(N3CCN(C(=O)CCCN4C(=O)S/C(=C\c5ccc(F)cc5)C4=O)CC3)c(F)cc2c1=O` [3i]: in assay [1], the “Apoptosis Early” value is given as 3.03%, the “Apoptosis Late” value turned out to be 24.17%, the “Apoptosis Total” value was found to be 38.51% and the Necrosis stood at 11.31%. Further, the IC50 in assay [2] stood at 45.1 ± 2.43 µM.
